In patent US7553972B2, “Benzamide inhibitors of the P2X7 receptor” (Pfizer, Inc., priority 2003, dated 2009) one finds IC50 data, which are given here for 25 compounds.

One may read the IC50 as the concentration that inhibits the measured activity by half.

One test concerns the target T1, P2X7 receptor (Homo sapiens, UniProt Q99572).
T1 construct: endogenous in cells
T1 sequence (Q99572 1-595): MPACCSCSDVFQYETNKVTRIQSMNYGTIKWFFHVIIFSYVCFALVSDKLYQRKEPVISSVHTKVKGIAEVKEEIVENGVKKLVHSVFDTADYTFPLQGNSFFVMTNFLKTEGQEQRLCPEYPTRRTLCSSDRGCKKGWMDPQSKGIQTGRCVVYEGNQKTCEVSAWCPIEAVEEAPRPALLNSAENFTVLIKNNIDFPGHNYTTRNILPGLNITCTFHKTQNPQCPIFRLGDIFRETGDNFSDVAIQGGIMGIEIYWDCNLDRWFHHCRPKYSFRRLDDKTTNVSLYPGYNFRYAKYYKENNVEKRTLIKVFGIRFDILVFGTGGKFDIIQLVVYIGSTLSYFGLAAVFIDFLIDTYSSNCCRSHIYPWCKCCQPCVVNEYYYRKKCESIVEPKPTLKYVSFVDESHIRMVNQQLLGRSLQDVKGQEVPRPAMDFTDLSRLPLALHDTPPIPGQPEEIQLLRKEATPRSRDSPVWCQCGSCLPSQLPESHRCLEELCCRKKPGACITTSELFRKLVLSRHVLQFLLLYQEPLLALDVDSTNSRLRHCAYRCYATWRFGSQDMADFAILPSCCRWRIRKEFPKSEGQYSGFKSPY
In words: Inhibition of ATP-stimulated IL-1β release from LPS-activated blood monocytes (P2X7 antagonist activity, ELISA readout). Type of test: cell-based.
Settings: not given
On the procedure: In like manner, the compounds of the invention can be tested for antagonist activity at the P2X7 receptor using the cytokine IL-1β as the readout. Blood collected from normal volunteers in the presence of heparin is fractionated using lymphocyte separation medium obtained from Organon Technica (Westchester, Pa.). […] The resulting cell pellet was suspended in 10 ml of Maintenance Medium and a cell count was performed. In an average experiment, 2×10^5 mononuclear cells are seeded into each well of 96-well plates in a total volume of 0.1 ml. Monocytes are allowed to adhere for 2 hours, after which the supernatants are discarded and the attached cells are rinsed twice and then incubated in Maintenance Medium overnight at 37° C. in a 5% CO2 environment.
The cultured monocytes can be activated with 10 ng/ml LPS (E. coli serotype 055:B5; Sigma Chemicals, St. Louis, Mo.). […] ATP then is introduced (from a 100 mM stock solution, pH 7) to achieve a final concentration of 2 mM and the plate is incubated at 37° C. for an additional 3 hours. Media were harvested and clarified by centrifugation, and their IL-1[…] content was determined by ELISA (R&D Systems; Minneapolis, Minn.).
Blood was collected from normal volunteers in the presence of heparin, and was fractionated using lymphocyte separation medium obtained from Organon Technica (Westchester, Pa.). […] The resulting cell pellet was suspended in 10 ml of Maintenance Medium and a cell count was performed. Approximately, 2×10^5 mononuclear cells were seeded into each well of 96-well plates in a total volume of 0.1 ml. Monocytes were allowed to adhere for 2 hours, after which the supernatants were discarded and the attached cells were rinsed twice and then incubated in Maintenance Medium overnight at 37° C. in a 5% CO2 environment.
The cultured monocytes were activated with 10 ng/ml LPS (E. coli serotype 055:B5; Sigma Chemicals, St. Louis, Mo.). […] ATP then was introduced (from a 100 mM stock solution, pH 7) to achieve a final concentration of 2 mM and the plate was incubated at 37° C. for an additional 3 hours. Media were harvested and clarified by centrifugation, and their IL-1β content was determined by ELISA (R&D Systems; Minneapolis, Minn.).
In general terms: An ELISA detects its analyte on a solid surface through an enzyme-linked reagent.
`Cc1nc(-c2ccc(Cl)c(C(=O)NCC3(O)CCCCCC3)c2)cs1` [Example 59, 2-Chloro-N-(1-hydroxy-cycloheptylmethyl)-5-(2-methyl-thiazol-4-yl)-benzamide] registered an IC50 of 280 nM.

The same test, now with this note: monocytes from normal volunteers, 10 ng/ml LPS 2 h, compound 30 min, 2 mM ATP 3 h, IL-1β by ELISA, triplicate wells; read-out: IC50 (inhibit 50% of the stimulation of the release of IL-1β from monocytes by ATP).
For the compound `CCc1cc(-c2ccc(Cl)c(C(=O)NCC3(O)CCCCCC3)c2)[nH]n1` [Example 15, 2-Chloro-5-(5-ethyl-2H-pyrazol-3-yl)-N-(1-hydroxy-cycloheptylmethyl)-benzamide], the IC50 worked out at 23 nM.
Still for that read-out and setting: to `O=C(NCCc1ccccc1Cl)c1cc(-c2cn[nH]c2)ccc1Cl` [Example 10, 2-Chloro-N-[2-(2-chloro-phenyl)-ethyl]-5-(1H-pyrazol-4-yl)-benzamide] belongs 800 nM; to `O=C(NCCc1ccccc1Cl)c1cc(-c2cc[nH]n2)ccc1Cl` [Example 18, 2-Chloro-N-[2-(2-chloro-phenyl)-ethyl]-5-(1H-pyrazol-3-yl)-benzamide], 545 nM.
In the case of `Cc1cc(-c2ccc(Cl)c(C(=O)NCC3(O)CCCC(C)(C)C3)c2)[nH]n1` (stereo not shown) [Example 13, 2-Chloro-N-(1-hydroxy-3,3-dimethyl-cyclohexylmethyl)-5-(5-methyl-2H-pyrazol-3-yl)-benzamide], the IC50 amounted to 8 nM.
On to `Cc1cc(-c2ccc(Cl)c(C(=O)NCC3(O)CCCCCC3)c2)nn1CC(=O)N1CCCC1` [Example 46, 2-Chloro-N-(1-hydroxy-cycloheptylmethyl)-5-[5-methyl-1-(2-oxo-2-pyrrolidin-1-yl-ethyl)-1H-pyrazol-3-yl]-benzamide], for which the IC50 came out at 22 nM.
Regarding `COc1ccc(-c2ccc(Cl)c(C(=O)NCCc3ccccc3Cl)c2)nn1` [Example 8, 2-Chloro-N-[2-(2-chloro-phenyl)-ethyl]-5-(6-methoxy-pyridazin-3-yl)-benzamide], the IC50 came out at 525 nM.
The same measure, in the same setting: to `Cc1cc(-c2ccc(Cl)c(C(=O)NCC3(O)CCCCCC3)c2)nn1C[C@@H](O)CO` [Example 40, 2-Chloro-5-[1-(2,3-dihydroxy-propyl)-5-methyl-1H-pyrazol-3-yl]-N-(1-hydroxy-cycloheptylmethyl)-benzamide] belongs 8 nM.
On to `Cc1ccc(-c2ccc(Cl)c(C(=O)NCCc3ccccc3Cl)c2)nc1` [Example 7, 2-Chloro-N-[2-(2-chloro-phenyl)-ethyl]-5-(5-methyl-pyridin-2-yl)-benzamide], for which the 50% inhibitory concentration (IC50) came to 1660 nM.
For the compound `O=C(NCC1(O)CCCCCC1)c1cc(-c2cc(CCO)on2)ccc1Cl` [Example 58, 2-Chloro-N-(1-hydroxy-cycloheptylmethyl)-5-[5-(2-hydroxy-ethyl)-isoxazol-3-yl]-benzamide], the IC50 came to 430 nM.
With `CC(C)(O)Cn1ccc(-c2ccc(Cl)c(C(=O)NCC3(O)CCCCCC3)c2)n1` [Example 41, 2-Chloro-N-(1-hydroxy-cycloheptylmethyl)-5-[1-(2-hydroxy-2-methyl-propyl)-1H-pyrazol-3-yl]-benzamide], the 50% inhibitory concentration (IC50) was 30 nM.
On the same count and under the same terms, to `O=C(NCC1(O)CCCCCC1)c1cc(-c2cn[nH]n2)ccc1Cl` [Example 56, 2-Chloro-N-(1-hydroxy-cycloheptylmethyl)-5-(2H-[1,2,3]triazol-4-yl)-benzamide] belongs 480 nM.
Take `CCc1cc(-c2ccc(Cl)c(C(=O)NCCc3ccccc3Cl)c2)[nH]n1` [Example 16, 2-Chloro-N-[2-(2-chloro-phenyl)-ethyl]-5-(5-ethyl-2H-pyrazol-3-yl)-benzamide]: the IC50 was 370 nM.
With `O=C(NCC1(O)CCCCCC1)c1cc(-c2cc[nH]n2)ccc1Cl` [Example 19, 2-Chloro-N-(1-hydroxy-cycloheptylmethyl)-5-(1H-pyrazol-3-yl)-benzamide], the IC50 is 180 nM.
Same read-out and setting: to `O=C(NCC1(O)CCCCCC1)c1cc(-c2cn(CC(O)CF)cn2)ccc1Cl` (stereo not shown) [Example 57, 2-Chloro-5-[1-(3-fluoro-2-hydroxy-propyl)-1H-imidazol-4-yl]-N-(1-hydroxy-cycloheptylmethyl)-benzamide] belongs over 1000 nM; to `Cc1ccc(C2(CNC(=O)c3cc(-c4cc[nH]n4)ccc3Cl)CCCCC2)cc1` [Example 17, 2-Chloro-5-(1H-pyrazol-3-yl)-N-(1-p-tolyl-cyclohexylmethyl)-benzamide], 18 nM; to `Cc1cc(-c2ccc(Cl)c(C(=O)NCC3(O)CCCCCC3)c2)nn1CC(N)=O` [Example 37, 5-(1-Carbamoylmethyl-5-methyl-1H-pyrazol-3-yl)-2-chloro-N-(1-hydroxy-cycloheptylmethyl)-benzamide], 18 nM.
`Cc1cc(-c2ccc(Cl)c(C(=O)NCC3(O)CCCCCC3)c2)nn1CC(=O)NC[C@H](C)O` [Example 51, 2-Chloro-N-(1-hydroxy-cycloheptylmethyl)-5-{1-[(2-hydroxy-propylcarbamoyl)-methyl]-5-methyl-1H-pyrazol-3-yl}-benzamide]: the IC50 was found to be 5 nM.
Take `O=C(NCC1(O)CCCCCC1)c1cc(-c2ccnn2CCO)ccc1Cl` [Example 26, 2-Chloro-N-(1-hydroxy-cycloheptylmethyl)-5-[2-(2-hydroxy-ethyl)-2H-pyrazol-3-yl]-benzamide]: the IC50 came out at 373 nM.
On to `Cc1cc(-c2ccc(Cl)c(C(=O)NCC3(O)CCCCCC3)c2)nn1CC(C)(C)O` [Example 42, 2-Chloro-N-(1-hydroxy-cycloheptylmethyl)-5-[1-(2-hydroxy-2-methyl-propyl)-5-methyl-1H-pyrazol-3-yl]-benzamide], for which the IC50 was determined as 8 nM.
As to `Cc1cc(-c2ccc(Cl)c(C(=O)NCC3(O)CCCCCC3)c2)n(C[C@@H](O)CO)n1` [Example 43, 2-Chloro-5-[2-(2,3-dihydroxy-propyl)-5-methyl-2H-pyrazol-3-yl]-N-(1-hydroxy-cycloheptylmethyl)-benzamide], the IC50 worked out at 130 nM.
As to `Cc1cc(-c2ccc(Cl)c(C(=O)NCC3(O)CCCCCC3)c2)nn1CCO` [Example 25, 2-Chloro-N-(1-hydroxy-cycloheptylmethyl)-5-[1-(2-hydroxy-ethyl)-5-methyl-1H-pyrazol-3-yl]-benzamide], the IC50 came out at 4 nM.
For `Cc1cc(-c2ccc(Cl)c(C(=O)NCC3(O)CCCCCC3)c2)n(CCO)n1` [Example 31, 2-Chloro-N-(1-hydroxy-cycloheptylmethyl)-5-[2-(2-hydroxy-ethyl)-5-methyl-2H-pyrazol-3-yl]-benzamide], the IC50 is 70 nM.
The same measure, in the same setting: to `COc1ccc(-c2ccc(Cl)c(C(=O)NCC3(O)CCCCCC3)c2)nn1` [Example 4, 2-Chloro-N-(1-hydroxy-cycloheptylmethyl)-5-(6-methoxy-pyridazin-3-yl)-benzamide] belongs 280 nM; to `Cc1cc(-c2ccc(Cl)c(C(=O)NCC3(O)CCCCCC3)c2)nn1C[C@@H](O)CN` [Example 54, 5-[1-(3-Amino-2-hydroxy-propyl)-5-methyl-1H-pyrazol-3-yl]-2-chloro-N-(1-hydroxy-cycloheptylmethyl)-benzamide], 5 nM.
